Measurements from patent US5567704A, “R-enatiomerically pure hydroxylated xanthine compounds to treat baldness” (priority 1995, dated 1996).

Tests used:
HUVEC = experiment: adhesion of U937 cells to activated HUVEC; format: cell-based, human; settings: 250 μM, FIG. 21
Procedure: Murine peritoneal exudate cell macrophages (PEC) were isolated by perfusion of mouse peritoneum and plated into 96-well trays at 5×10^5 cells per well. Cells were stimulated with 5 μg/ml Salmonella abortus equi -derived endotoxin (LPS; Sigma Chemical Co., L-1887) or […] IL-1α (Genzyme; Cambridge, Mass.) with or without the addition of CT1501R added to the cultures one hour prior to addition of the stimulus. At various times thereafter, supernatants were removed and levels of either TNF-α or IL-1α were assayed using commercial 96-well microtiter immunoassay kits (Genzyme; TNF; Endogen, Boston, Mass.; IL-1α) according to manufacturer's specifications. For the adhesion studies, early passage human umbilical vein endothelial cells (HUVEC) were obtained. from commercial suppliers (Clonetics, San Diego, Calif. or Cell Systems, Seattle, Wash.) and cultured in defined, Hepes buffered, serum free medium (Cell Systems, cat 301-180) supplemented with acidic FGF (Cell Systems cat 401-111). 4000 cells were plated into each well of a 96-well microtiter plate and allowed to incubate for 72 hrs at 37° C. […] After addition of […] Hanks Balanced Salt Solution (HBSS), the microtiter plate was then analyzed on a Millipore Cytofluor fluorescent plate reader (excitation 488 nm; emission 525 nm). […]

nu/nu mice = experiment: nude mouse hair studies, topical application; format: in vivo
Source text: This example illustrates nude mouse hair studies involving topical application of CT1501R. Six to eight week old, female, nu/nu mice from Charles River Laboratories were housed at Biosupport Research Support Services (Seattle, Wash.) in autoclaved micro isolator units with hyperchlorinated autoclaved water, irradiated rodent chow and kept under a laminar flow hood. Caging was changed weekly, and water was changed twice weekly. The mice were acclimated for 5 days before beginning each study.
The first topical formulation was prepared by adding CT1501R to a heated hydrophilic ointment (USP) at a 1% concentration, and allowed to solidify.
Nude mice were painted twice daily for 16 days with the first topical formulation of CT1501R on the left flank and another compound in the same base on the right flank with sterile applicators. Mice were handled under the laminar flow hood with applicator wearing face mask and sterile gloves. After 16 days, one mouse was sacrificed by cervical dislocation and skin biopsies were taken of the treated areas of the shoulder/flank and from the non-treated area of the dorsal pelvis (rump). Specimens were placed in 10% buffered formalin solution. Biopsies were sent to a veterinary dermopathologist for histopathology. Six weeks following treatment, a second mouse was euthanatized and biopsied the same as the first. Samples were sent for histopathology.
In a second experiment, topical application of CT1501R was performed along with a commercial topical minoxidil preparation (Rogaine®, Upjohn) that is approved for a hair growth indication. Five to six week old, female, nu/nu mice from Bantin and Kingman Universal were housed at Biosupport Research Support Services (Seattle, Wash.) in autoclaved micro isolator units with hyper chlorinated autoclaved water, irradiated rodent chow and kept under a laminar flow hood. Caging was changed weekly, and water was changed twice weekly. Mice were acclimated for 7 days before beginning study.
CT1501R, and two other compounds were prepared in a topical formulation of 60% ETOH, 10% water and 30% PEG along with vehicle only. Minoxidil was purchased as the commercial preparation Rogaine® from a local pharmacy. Rogaine® is sold in the same formulation base. Mice were identified by unique tail markings specific for each test article. Two mice per group were treated with CT1501R and another compound. One mouse was treated with each of vehicle and minoxidil. The mice were handled under the laminar flow hood with the applicator wearing face mask and sterile gloves. Each mouse was treated twice daily with a separate sterile applicator to avoid contamination of the solutions or the mice. All mice were applied a strip of appropriate test article along the center line of the back from the base of the skull to the base of the tail, approximately 1.5 cm wide. After 34 days all mice were euthanatized by overdose of halothane anesthesia. Skin biopsies were taken from each of the 7 mice over the nape of the neck between the scapulas (approximate size was 1×1.5 cm). All specimens were blotted on gauze to remove blood and fluids, affixed to a cut piece of wooden tongue depressor, and placed specimen side down in separately marked containers with 10% buffered formalin. Specimens were shipped to a veterinary dermatopathologist for qualitative histopathological determinations.

[1] = first experiment, 1% in hydrophilic ointment, twice daily 16 days

Compound: C[C@@H](O)CCCCn1c(=O)c2c(ncn2C)n(C)c1=O [CT1501R, (R)-1-(5-hydroxyhexyl)-3,7-dimethylxanthine]
- adhesiveness of activated HUVEC for U937 cells (HUVEC; 1 hour prior to TNF-α, IL-1α or LPS): marked suppression in the relative adhesiveness of the activated HUVEC
- background attachment of U937 cells to HUVEC (HUVEC; non-activated HUVEC): no significant effect on background attachment of U937 cells to HUVEC
- hair follicles, histopathology (nu/nu mice; [1]): significantly more normal appearing hair follicles than the non treated sections
- hair shafts, histopathology (nu/nu mice; [1]): Numerous hair shafts were seen exiting the follicles in the treated sections
- hair growth promotion compared with minoxidil (nu/nu mice; second experiment): at least as good at promoting hair growth in this model as minoxidil
- visual inspection of hair (nu/nu mice; second experiment, group of CT1501R, minoxidil and control): most "hairy"
- hair follicles, subjective histopathological examination (nu/nu mice; second experiment, topical twice daily, 34 days): greatest concentration of hair folicles
